From the NIST ThermoML archive (doi:10.1016/j.jct.2013.10.034)

Assay: xn = mol fraction of the nth substance listed
Settings: 100 kPa, Liquid; for viscosity: Falling or rolling sphere viscometry; for mass density: Vibrating tube method

CCCC[N+]1(C)CCCC1.N#CN=C=[N-] [1-butyl-1-methylpyrrolidinium dicyanamide] + O
Settings	mass density, 323.15 K [kg/m3]	mass density, 328.15 K [kg/m3]	mass density, 333.15 K [kg/m3]	mass density, 338.15 K [kg/m3]	mass density, 343.15 K [kg/m3]	viscosity, 323.15 K [mPa·s]	viscosity, 328.15 K [mPa·s]	viscosity, 333.15 K [mPa·s]	viscosity, 338.15 K [mPa·s]	viscosity, 343.15 K [mPa·s]
x1 = 0.0729	992.46	989.39	985.91	982.26	979.39	2.233	2.005	1.807	1.642	1.496
x1 = 0.1652	996.43	993.17	989.89	986.61	983.31	3.985	3.59	3.196	2.892	2.593
x1 = 0.2234	998.16	994.93	991.81	988.61	985.46	4.99	4.448	3.98	3.587	3.24
x1 = 0.3163	1000.13	997.04	994.04	990.99	988.01	6.467	5.765	5.16	4.649	4.199
x1 = 0.3548	1000.71	997.72	994.76	991.74	988.75	7.043	6.295	5.643	5.083	4.587
x1 = 0.4198	1001.58	998.6	995.72	992.73	989.8	7.978	7.116	6.375	5.746	5.195
x1 = 0.4762	1002.18	999.26	996.34	993.46	990.47	8.763	7.819	7.009	6.319	5.717
x1 = 0.5239	1002.64	999.74	996.85	993.96	991.03	9.377	8.369	7.517	6.784	6.142
x1 = 0.6244	1003.38	1000.55	997.67	994.85	991.95	10.79	9.629	8.64	7.795	7.061
x1 = 0.629	1003.41	1000.57	997.7	994.9	991.96	10.85	9.685	8.691	7.841	7.103
x1 = 0.711	1003.92	1001.11	998.24	995.49	992.62	12	10.71	9.609	8.671	7.857
x1 = 0.7413	1004.07	1001.26	998.46	995.67	992.85	12.45	11.1	9.96	9	8.116
x1 = 0.8776	1004.69	1001.89	999.13	996.49	993.62	14.56	12.96	11.62	10.48	9.492
x1 = 0.9732	1005.09	1002.31	999.61	996.91	994.09	16.24	14.43	12.92	11.64	10.53
x1 = 1	1005.23	1002.48	999.74	997	994.28	16.72	14.84	13.28	11.96	10.82
